For the assay, the system named is surface Ig on BALB/c splenic B cells. The assay can be described thus: Microscopy of BCR cap formation (co-capping). It is filed as cell-based, mouse (BALB/c). The settings on record: anti-Ig stimulation, Fig. 4F. As for the experimental part: Purified naïve splenic B cells were incubated on ice for 30 min with Alexa 488-labeled wheat germ agglutinin (Invitrogen) and 10 µg/ml R-PE-labeled goat anti-mouse IgM+IgG (H+L) F(ab)2 and APC-labeled gp41 MPER. After extensive washing, cells were stimulated for indicated times. Images were acquired with a Nikon TE2000-E2 inverted microscope employing a 40X magnification lens from a CoolSNAPPHQ2 monochrome camera.

For “QQEKNEQELLELDKWASLWN [gp41 MPER tetramer, (residues 659–678 of the HIV-1 envelope)]”, the “co-capping with surface Ig (in words)” value was “co-capped with surface Ig in BALB/c splenic B cells”.

These data come from publication PMC2751816, “Functional, Non-Clonal IgM^a-Restricted B Cell Receptor Interactions with the HIV-1 Envelope gp41 Membrane Proximal External Region” (PLoS ONE, 2009).
